The text below walks through data of patent US7981939B2, “Application of 2-bromide-isovanillin for the manufacture of a medicament for anti-cancer or/and radiation/chemotherapy sensitization” (Institute of Radiation Medicine, Academy of Military …, priority 2005, dated 2011).

The subject of assay [1] is human cervical cancer cell line HeLa. The assay can be described thus: MTT assay, proliferation of HeLa cells. Conditions: for effect on the proliferation of HeLa cells: concentrations of less than 40 μmol/L, up to 72 hrs. It counts as cell-based. As to the method: Human cervical cancer cell line HeLa, human liver cancer cell line HepG2/7221/7402, human ovarian cancer cell line HOC8/A2780, human glioma cell line BT325, lung cancer cell line A549, brain metastatic lung cancer cell line BT72 and normal human hepatic cell line LO2 were all grown in DMEM liquid medium supplemented with 10% newborn calf serum. Human leukemia cell line Jurkat was grown in 1640 medium supplemented with 10% newborn calf serum. The above cell lines were cultured in a CO2 incubator at 5% CO2 at 37° C.
By way of example, human cervical cancer cell line HeLa was used to study the effect of vanillin on the proliferation of cancer cells by MTT assay. Specifically, human cervical cancer cells HeLa were seeded into a 96-well plate at a density of 5×10^3 cells/well, and were divided into four groups. To each of the groups vanillin was added at a concentration of 0, 100, 250 or 500 μmol/L, respectively, and was allowed to grow for 4 days. Using the MTT assay, the optical density (OD) values at 490 nm were measured and recorded every day, wherein the OD value is indicative of the number of cells, i.e., the proliferation of cells.
By way of example, human cervical cancer cell line HeLa was used to study the effect of several vanillin derivatives for 72 hrs on the proliferation of cancer cells by MTT assay. Specifically, human cervical cancer cells HeLa were seeded into a 96-well plate at a density of 5×10^3 cells/well, and were divided into four groups. To each of the groups were added increasing concentrations (0, 10, 20, 30, 40 μmol/L) of vanillin derivatives ethyl vanillin (Code No. VAND3206), 4-methoxy vanillin (Code No. VAND3207), isovanillin (Code No. VAND3209) and 2-bromo-isovanillin (Code No. VAND3208), and the cells were cultured for 72 hrs. Using the MTT assay, the optical density (OD) values at 490 nm were measured and recorded every day, wherein the OD value is indicative of the number of cells, i.e., the proliferation of cells.
By way of example, human cervical cancer cell line HeLa was used to study the inhibitory effect of 2-bromo-isovanillin at different concentrations for different periods of time on the proliferation of cancer cells by MTT assay. Specifically, human cervical cancer cells HeLa were seeded into a 96-well plate at a density of 5×10^3 cells/well, and were divided into […]. To each of the groups 2-bromo-isovanillin was added at a concentration of 0, 10, 20, 30, 40 or 50 μmol/L, and was cultured for 14 days, respectively. Using the MTT assay, the optical density (OD) values at 490 nm were measured and recorded every day, wherein the OD value is indicative of the number of cells, i.e., the proliferation of cells.

For assay [2], the target named is T1, nuclear protein DNA-PKcs serine/threonine protein kinase (Homo sapiens, UniProt P78527).
T1 construct: adding nuclear proteins to the solid phase reaction system; endogenous in cells; host or cells: HepG2 human liver cancer cells (nuclear protein extract)
The assay can be described thus: DNA-PKcs kinase activity in nuclear protein of treated HepG2 cells. Conditions: HepG2, 100 μmol/L, 24 hrs. It counts as cell-based. As to the method: The activity of nuclear protein DNA-PKcs serine/threonine protein kinase in human liver cancer cells HepG2 treated with 0, 10, 20, 40, 100 μmol/L 2-bromo-isovanillin for 24 hrs was determined by using […] DNA dependent protein kinase assay kit (Promega), according to the manufacturer's instructions, and the treatment with 100 μmol/L vanillin for the same period of time served as control. Basically, the assay was carried out by immobilizing the phosphorylation substrate specific to DNA-PKcs, i.e., a peptide derived from p53 protein onto a cellulose membrane, adding nuclear proteins to the solid phase reaction system, isotopically labeling the substrate by phosphorylation using γ-^32P ATP, removing non-specific signals after the isotope labeling, and visualizing the kinase activity upon X-ray film developing.

Turning to `COc1cc(C=O)ccc1O` [vanillin], the “concentration at which proliferation of cancer cells was effectively inhibited” value in assay [1] (HeLa, 0-500 μmol/L, 4 days, OD at 490 nm) was “above 250 μmol/L”. For the same compound, the “inhibitory effect on DNA-PKcs kinase activity compared with 2-bromo-isovanillin” value in assay [2] was “significantly weaker”.
In the case of `CCOc1cc(C=O)ccc1O` [ethyl vanillin], in assay [1], the “effect on the proliferation of HeLa cells” value is listed as “no inhibitory effect”.
Same read-out and setting: the value for `COc1ccc(C=O)cc1O` [VAND3209, isovanillin] was “no inhibitory effect”.
